Measured values: patent US5726179A, “Muscarinic agonists” (The University of Toledo, priority 1996, dated 1998)
Counter-ions that a name gives are not always drawn.

How the values were obtained:
[1] = tested on: muscarinic receptors; experiment: PI cortex: agonist activity at muscarinic receptors in rat central nervous system; format: biochemical; conditions: mean from one to three experiments, each in triplicate
[2] = biological target: muscarinic receptors; experiment: Binding affinity at muscarinic receptors in rat central nervous system, ligand [3H]-QNB; conditions: rat CNS; mean from one to three experiments, each in triplicate
Source text: Data represent the mean from one
to three experiments, each performed in triplicate.

[3] = tested on: M2 receptors; conditions: background; cited from earlier work
[4] = tested on: experimental animals; conditions: background, cited from earlier work; for reverse cognitive impairments in experimental animals: natural product agonist ligands
[5] = tested on: M3 receptors; conditions: background; cited from earlier work

Row | Molecule | PI cortex (at 100 μM) [1] | other results
1 | 5-(3-Methylpropynyloxycarbonyl)-1,4,5,6-tetrahydropyrimidine HCl [CDD-0177-A] | 22 ± 3% | IC50 [2]: 45 µM
2 | CCN(CC)CC1CCCCN1CC(=O)N1c2ccccc2C(=O)Nc2cccnc21 (stereo not drawn) [AF-DX 116] | – | selective antagonist for M2 receptors [3]: selective antagonists
3 | C#C/C(C)=C/COC(=O)C1CN=CNC1 (stereo not drawn) [CDD-0161-A, (trans)-5-(3-Methyl-2-penten-4-ynyloxycarbonyl)-1,4,5,6-tetrahydropyrimidine HCl] | 35 ± 5.6% | –
4 | C#C/C(C)=C\COC(=O)C1CN=CNC1 (stereo not drawn) [CDD-0162-A, (cis)-5-(3-Methyl-2-penten-4-ynyloxycarbonyl)-1,4,5,6-tetrahydropyrimidine HCl] | 50 ± 4.3% | –
5 | CC#CCOC(=O)C1CN=CNC1.Cl (stereo not drawn) [CDD-0171-A, 5-(2-Butynyloxycarbonyl)-1,4,5,6-tetrahydropyrimidine HCl] | 140% | –
6 | O=C(OCC#Cc1ccccc1)C1CN=CNC1 (stereo not drawn) [CDD-0189-A] | 3 ± 8.2% | –
7 | C#CCCOC(=O)C1CN=CNC1 (stereo not drawn) [CDD-0195-A] | 100 ± 15% | –
8 | COC(=O)C1=CCCN(C)C1 [arecoline] | – | reverse cognitive impairments in experimental animals [4]: reverse cognitive impairments
9 | O[Si](CCCN1CCCCC1)(c1ccc(F)cc1)C1CCCCC1 (stereo not drawn) [p-F-hexahydrosiladifenidol] | – | selective antagonist for M3 receptors [5]: selective antagonists
10 | CC[C@@H]1C(=O)OC[C@@H]1Cc1cncn1C [pilocarpine] | – | reverse cognitive impairments in experimental animals [4]: reverse cognitive impairments
11 | CN1CCN(CC(=O)N2c3ccccc3C(=O)Nc3cccnc32)CC1 [pirenzepine] | – | produce memory impairments in experimental animals ([4]; M1 antagonist): produce memory impairments
